Results taken from PubChem BioAssay AID328 (DTP/NCI, 2004).
Values joined by “and” are separate entries in the source; they are usually repeats but may differ in a detail not shown here. Equal values may be shown once. Inconclusive results and toxic doses are left out.

System: BDF1 mice, P388 leukemia ip, median survival T/C
Experiment: NCI In Vivo Anticancer Drug Screen. Data for tumor model P388 Leukemia (intraperitoneal) in B6D2F1 (BDF1) mice
Settings: endpoint: median survival time, higher = longer survival
Method in brief: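 T/C = treated-group survival ÷ vehicle-control survival; tumour transplanted into mice before dosing.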

[1] = dose: 100.0 mg/kg/injection, schedule: Q04DX003 (ip), vehicle: saline with Tween-80
[2] = dose: 200.0 mg/kg/injection, schedule: Q04DX003 (ip), vehicle: saline with Tween-80
[3] = dose: 25.0 mg/kg/injection, schedule: Q01DX009 (ip), vehicle: saline
[4] = dose: 50.0 mg/kg/injection, schedule: Q01DX009 (ip), vehicle: saline
[5] = dose: 100.0 mg/kg/injection, schedule: Q01DX009 (ip), vehicle: saline
[6] = dose: 50.0 mg/kg/injection, schedule: Q01DX009 (ip), vehicle: saline with Tween-80
[7] = dose: 100.0 mg/kg/injection, schedule: Q01DX009 (ip), vehicle: saline with Tween-80
[8] = dose: 50.0 mg/kg/injection, schedule: Q04DX003 (ip), vehicle: saline with Tween-80
[9] = dose: 25.0 mg/kg/injection, schedule: Q01DX009 (ip), vehicle: saline with Tween-80
[10] = dose: 200.0 mg/kg/injection, schedule: Q01DX009 (ip), vehicle: saline with Tween-80
[11] = dose: 100.0 mg/kg/injection, schedule: Q01DX009 (ip), vehicle: Klucel (hydroxypropylcellulose) (HPC)

`O=C(CCNC(=O)OCc1ccccc1)NC(CSCc1ccccc1)C(=O)O` (stereo not given) was tested, and the T/C (dose: 12.5 mg/kg/injection, schedule: Q04DX003 (ip), vehicle: water) was 112 % of control, the T/C (dose: 25.0 mg/kg/injection, schedule: Q04DX003 (ip), vehicle: water) was 118 % of control and the T/C (dose: 50.0 mg/kg/injection, schedule: Q04DX003 (ip), vehicle: water) was 114 % of control. For the same molecule, the T/C (dose: 100.0 mg/kg/injection, schedule: Q04DX003 (ip), vehicle: water) was 105 % of control and the T/C (dose: 200.0 mg/kg/injection, schedule: Q04DX003 (ip), vehicle: water) was 103 % of control.

`CC(C)(C)CC(=O)OCCC[N+](C)(C)C` was tested, and the T/C (dose: 6.25 mg/kg/injection, schedule: Q01DX009 (ip), vehicle: water) was 103 % of control, the T/C (dose: 12.5 mg/kg/injection, schedule: Q01DX009 (ip), vehicle: water) was 119 % of control and the T/C (dose: 25.0 mg/kg/injection, schedule: Q01DX009 (ip), vehicle: water) was 99 % of control. For the same molecule, the T/C (dose: 50.0 mg/kg/injection, schedule: Q01DX009 (ip), vehicle: water) was 91 % of control.

With `Cc1c(C)c(Br)c(C)c(-c2c(O)c(Br)c(-c3c(C)c(C)c(C)c(Br)c3C)c(O)c2Br)c1C` the T/C [1] was 100 % of control, the T/C [2] was 90 % of control and the T/C (dose: 400.0 mg/kg/injection, schedule: Q04DX003 (ip), vehicle: saline with Tween-80) was 90 % of control.

With `COc1cc([N+](=O)[O-])c(C)cc1NCc1ccc(OC)c(OC)c1` the T/C [3] was 100 % of control, the T/C [4] was 99 % of control and the T/C [5] was 94 % of control.

For `CC(=O)OC(C)(C)/C=C/C(=O)[C@](C)(O)[C@H]1[C@H](O)C[C@@]2(C)[C@@H]3CC=C4[C@@H](C[C@H](O)C(=O)C4(C)C)[C@]3(C)C(=O)C[C@]12C`, the T/C (dose: 0.07 mg/kg/injection, schedule: Q01DX009 (ip), vehicle: saline) was 95 % of control, the T/C (dose: 0.09 mg/kg/injection, schedule: Q04DX003 (ip), vehicle: saline) was 100 % of control and the T/C (dose: 0.12 mg/kg/injection, schedule: Q01DX009 (ip), vehicle: saline) was 115 % of control. The T/C (dose: 0.18 mg/kg/injection, schedule: Q01DX009 (ip), vehicle: saline) was 105 % of control, the T/C (dose: 0.18 mg/kg/injection, schedule: Q01DX010 (ip), vehicle: carboxymethylcellulose (CMC)) was 120 % of control and the T/C (dose: 0.18 mg/kg/injection, schedule: Q04DX003 (ip), vehicle: saline) was 104 % of control. For the same molecule, the T/C (dose: 0.25 mg/kg/injection, schedule: Q01DX010 (ip), vehicle: carboxymethylcellulose (CMC)) was 113 % of control, the T/C (dose: 0.37 mg/kg/injection, schedule: Q01DX010 (ip), vehicle: carboxymethylcellulose (CMC)) was 100 % of control and the T/C (dose: 0.5 mg/kg/injection, schedule: Q01DX010 (ip), vehicle: carboxymethylcellulose (CMC)) was 118 % of control. For the same molecule, the T/C (dose: 0.75 mg/kg/injection, schedule: Q01DX010 (ip), vehicle: carboxymethylcellulose (CMC)) was 115 % of control, the T/C (dose: 1.5 mg/kg/injection, schedule: Q01DX010 (ip), vehicle: carboxymethylcellulose (CMC)) was 115 % of control and the T/C (dose: 132.0 micrograms/kg/injection, schedule: Q01DX009 (ip), vehicle: saline) was 112 % of control. The T/C (dose: 198.0 micrograms/kg/injection, schedule: Q01DX009 (ip), vehicle: saline) was 104 % of control.

With `O=[N+]([O-])c1ccc(/C=C/c2cccc(/C=C/c3ccc([N+](=O)[O-])cc3)[n+]2[O-])cc1` the T/C (dose: 50.0 mg/kg/injection, schedule: Q01DX005 (ip), vehicle: saline with Tween-80) was 96 % of control, the T/C (dose: 100.0 mg/kg/injection, schedule: Q01DX005 (ip), vehicle: saline with Tween-80) was 94 % of control and the T/C (dose: 200.0 mg/kg/injection, schedule: Q01DX005 (ip), vehicle: saline with Tween-80) was 93 % of control.

`CC(=O)OCc1ccc(Cl)cc1` was tested, and the T/C [6] was 116 % of control and the T/C [7] was 112 % of control.

For `NC1C(O)C(O)C(Nc2ncnc3nc[nH]c23)OC1C(O)CO` (stereo not given), the T/C (dose: 1.5 mg/kg/injection, schedule: Q01DX010 (ip), vehicle: saline) was 105 % of control, the T/C (dose: 3.0 mg/kg/injection, schedule: Q01DX010 (ip), vehicle: saline) was 105 % of control and the T/C (dose: 6.0 mg/kg/injection, schedule: Q01DX010 (ip), vehicle: saline) was 100 % of control. The T/C (dose: 12.0 mg/kg/injection, schedule: Q01DX010 (ip), vehicle: saline) was 95 % of control, the T/C (dose: 24.0 mg/kg/injection, schedule: Q01DX010 (ip), vehicle: saline) was 110 % of control and the T/C (dose: 48.0 mg/kg/injection, schedule: Q01DX010 (ip), vehicle: saline) was 105 % of control.

With `CC(=O)CC(Cl)(C(F)(F)F)C(F)(F)F` the T/C [8] was 100 % of control, the T/C [1] was 100 % of control and the T/C [2] was 109 % of control.

For `c1ccc2c(c1)Sc1ccccc1N2Cc1cnc[nH]1`, the T/C (dose: 25.0 mg/kg/injection, schedule: Q04DX003 (ip), vehicle: saline with Tween-80) was 100 % of control, the T/C [8] was 104 % of control and the T/C [1] was 100 % of control. For the same molecule, the T/C [2] was 109 % of control.

`C=C1C(=O)OC2CC3(C)OC3C3OC3C3=CC(OC3=O)C12` (stereo not given) was tested, and the T/C (dose: 1.25 mg/kg/injection, schedule: Q01DX010 (ip), vehicle: saline) was 115 % of control, the T/C (dose: 2.5 mg/kg/injection, schedule: Q01DX010 (ip), vehicle: saline) was 115 % of control and the T/C (dose: 5.0 mg/kg/injection, schedule: Q01DX010 (ip), vehicle: saline) was 115 % of control. For the same molecule, the T/C (dose: 10.0 mg/kg/injection, schedule: Q01DX010 (ip), vehicle: saline) was 100 % of control.

`CCCCCCCCCCCCCCSCCSCCSCCCCCCCCCCCCCC` was tested, and the T/C (dose: 25.0 mg/kg/injection, schedule: Q01DX001 (ip), vehicle: saline sonified) was 86 % of control and the T/C (dose: 100.0 mg/kg/injection, schedule: Q01DX001 (ip), vehicle: saline sonified) was 86 % of control.

`O=[N+]([O-])c1ccc(N2CCCC2)c2c1no[n+]2[O-]` was tested, and the T/C [8] was 101 % of control, the T/C [1] was 101 % of control and the T/C [2] was 108 % of control.

`OC1CCCC2CCCNC12` (stereo not given) (tested in a mixture with another compound) was tested, and the T/C [9] was 88 % of control, the T/C [6] was 103 % of control and the T/C [7] was 100 % of control.

In the case of `NC(N)=NC(N)=Nc1ccc(-c2ccc(N=C(N)N=C(N)N)cc2)cc1`, the T/C (dose: 12.5 mg/kg/injection, schedule: Q01DX009 (ip), vehicle: saline with Tween-80) is reported as 151 % of control and the T/C [9] is reported as 89 % of control.

In the case of `O=C1CCCCCCC1Cc1cc(O)c(CC2CCCCCCC2=O)cc1O` (stereo not given), the T/C [6] is reported as 90 % of control, the T/C [7] is reported as 91 % of control and the T/C [10] is reported as 86 % of control.

For `CC(=O)CC(C)=O.CC(=O)CC(C)=O.[CH3][Sn][CH3]`, the T/C (dose: 25.0 mg/kg/injection, schedule: Q01DX001 (ip), vehicle: Klucel (hydroxypropylcellulose) (HPC)) was 111 % of control and the T/C (dose: 50.0 mg/kg/injection, schedule: Q01DX001 (ip), vehicle: Klucel (hydroxypropylcellulose) (HPC)) was 119 % of control.

In the case of `CCCCCCCCCCCCCCCCNCCO`, the T/C (dose: 50.0 mg/kg/injection, schedule: Q01DX009 (ip), vehicle: Klucel (hydroxypropylcellulose) (HPC)) is reported as 110 % of control and the T/C [11] is reported as 112 % of control.

In the case of `CS(=O)(=O)Nc1ccc(Nc2c3ccccc3nc3cc(Cl)ccc23)cc1`, the T/C (dose: 9.6 mg/kg/injection, schedule: Q04DX003 (ip), vehicle: Klucel (hydroxypropylcellulose) (HPC)) is reported as 100 % of control, the T/C (dose: 14.0 mg/kg/injection, schedule: Q04DX003 (ip), vehicle: Klucel (hydroxypropylcellulose) (HPC)) is reported as 104 % of control and the T/C (dose: 132.0 mg/kg/injection, schedule: Q04DX003 (ip), vehicle: saline) is reported as 260 % of control and 195 % of control. For the same molecule, the T/C (dose: 200.0 mg/kg/injection, schedule: Q04DX003 (ip), vehicle: saline) was 272 % of control and 205 % of control and the T/C (dose: 300.0 mg/kg/injection, schedule: Q04DX003 (ip), vehicle: saline) was 259 % of control.

For `CN(S(=O)(=O)CC(F)(F)F)S(=O)(=O)C(F)(F)F`, the T/C (dose: 6.25 mg/kg/injection, schedule: Q01DX009 (ip), vehicle: saline) was 100 % of control, the T/C [3] was 108 % of control and the T/C [5] was 100 % of control.

For `Oc1ccccc1-c1nnc2sc3c(Cl)c4nn5c(-c6ccccc6O)nnc5sc4c(Cl)c3nn12`, the T/C [6] was 98 % of control, the T/C [7] was 98 % of control and the T/C [10] was 96 % of control.

With `Cc1ccc(/C=C2\CC(C)(C)c3ccccc3C2=O)cc1` the T/C (dose: 65.0 mg/kg/injection, schedule: Q01DX009 (ip), vehicle: Klucel (hydroxypropylcellulose) (HPC)) was 90 % of control, the T/C [11] was 87 % of control and 95 % of control and the T/C (dose: 400.0 mg/kg/injection, schedule: Q01DX009 (ip), vehicle: Klucel (hydroxypropylcellulose) (HPC)) was 100 % of control.

In the case of `C1CCNCC1.COc1ccccc1C(=O)[CH-]C(=O)C(F)(F)F.COc1ccccc1C(=O)[CH-]C(=O)C(F)(F)F.COc1ccccc1C(=O)[CH-]C(=O)C(F)(F)F.COc1ccccc1C(=O)[CH-]C(=O)C(F)(F)F.[Eu+3]`, the T/C [4] is reported as 88 % of control and the T/C [5] is reported as 119 % of control.

With `Cc1cc(N(C)C)ccc1/C=C/c1ccnc2ccccc12` the T/C (dose: 100.0 mg/kg/injection, schedule: Q04DX002 (ip), vehicle: saline with Tween-80) was 117 % of control and the T/C (dose: 200.0 mg/kg/injection, schedule: Q04DX002 (ip), vehicle: saline with Tween-80) was 107 % of control.
